ChEMBL document CHEMBL4011587, “Design, synthesis and evaluation of novel ferulic acid-O-alkylamine derivatives as potential multifunctional agents for the treatment of Alzheimer's disease” (Eur J Med Chem, 2017)

Legend:
Cholinesterase = Cholinesterase (Equus caballus, UniProt P81908); assay: Inhibition of equine serum BuChE using butyrylthiocholine chloride as substrate measured after 15 mins by Ellman's method
Acetylcholinesterase [1] = biological target: T1, Acetylcholinesterase (Electrophorus electricus, UniProt O42275); assay: Inhibition of electric eel AChE using acetylthiocholine chloride as substrate measured after 15 mins by Ellman's method; assay type: ADME
Acetylcholinesterase [2] = biological target: T2, Acetylcholinesterase (Rattus norvegicus, UniProt P37136); assay: Inhibition of AChE in rat cortex homogenates using acetylthiocholine chloride as substrate measured after 15 mins by Ellman's method; assay type: ADME
T2 sequence (P37136 whole entry): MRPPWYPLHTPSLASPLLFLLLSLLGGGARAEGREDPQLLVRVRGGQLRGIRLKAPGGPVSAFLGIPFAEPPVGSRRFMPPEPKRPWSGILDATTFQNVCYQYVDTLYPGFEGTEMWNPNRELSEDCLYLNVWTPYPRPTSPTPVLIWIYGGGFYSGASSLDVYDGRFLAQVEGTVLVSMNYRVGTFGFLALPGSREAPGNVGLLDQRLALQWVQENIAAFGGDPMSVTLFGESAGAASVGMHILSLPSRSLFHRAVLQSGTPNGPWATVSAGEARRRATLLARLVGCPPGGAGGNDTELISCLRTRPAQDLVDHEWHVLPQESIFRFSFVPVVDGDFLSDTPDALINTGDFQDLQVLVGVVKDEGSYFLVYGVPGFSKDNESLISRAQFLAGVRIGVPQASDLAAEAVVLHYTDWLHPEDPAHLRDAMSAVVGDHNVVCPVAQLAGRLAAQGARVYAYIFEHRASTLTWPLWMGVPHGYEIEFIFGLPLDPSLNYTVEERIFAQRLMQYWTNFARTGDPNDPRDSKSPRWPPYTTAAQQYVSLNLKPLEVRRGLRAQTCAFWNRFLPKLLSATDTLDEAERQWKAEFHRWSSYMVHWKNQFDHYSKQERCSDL

[3] = biological target: Amyloid-beta precursor protein (Homo sapiens) (UniProt P05067); assay: Inhibition of amyloid beta (1 to 42) (unknown origin) self-aggregation at 25 uM after 24 hrs by thioflavin-T fluorescence assay relative to control
[4] = Antioxidant activity assessed as inhibition of AAPH-induced peroxyl radical generation measured as trolox equivalent at 1 to 10 uM preincubated for 15 mins followed by AAPH addition measured every minute for 90 mins by ORAC-FL assay; assay type: functional
[5] = Inhibition of BuChE in rat serum using butyrylthiocholine chloride as substrate measured after 15 mins by Ellman's method; conditions: 0.25 h
[6] = Selectivity index, ratio of IC50 for electric eel AChE to IC50 for equine serum BuChE
Acetylcholinesterase [7] = biological target: T1, Acetylcholinesterase; assay: Inhibition of electric eel AChE at 25 uM using acetylthiocholine chloride as substrate measured after 15 mins by Ellman's method relative to control; conditions: 0.25 h

Chain of Cholinesterase (P81908 whole entry): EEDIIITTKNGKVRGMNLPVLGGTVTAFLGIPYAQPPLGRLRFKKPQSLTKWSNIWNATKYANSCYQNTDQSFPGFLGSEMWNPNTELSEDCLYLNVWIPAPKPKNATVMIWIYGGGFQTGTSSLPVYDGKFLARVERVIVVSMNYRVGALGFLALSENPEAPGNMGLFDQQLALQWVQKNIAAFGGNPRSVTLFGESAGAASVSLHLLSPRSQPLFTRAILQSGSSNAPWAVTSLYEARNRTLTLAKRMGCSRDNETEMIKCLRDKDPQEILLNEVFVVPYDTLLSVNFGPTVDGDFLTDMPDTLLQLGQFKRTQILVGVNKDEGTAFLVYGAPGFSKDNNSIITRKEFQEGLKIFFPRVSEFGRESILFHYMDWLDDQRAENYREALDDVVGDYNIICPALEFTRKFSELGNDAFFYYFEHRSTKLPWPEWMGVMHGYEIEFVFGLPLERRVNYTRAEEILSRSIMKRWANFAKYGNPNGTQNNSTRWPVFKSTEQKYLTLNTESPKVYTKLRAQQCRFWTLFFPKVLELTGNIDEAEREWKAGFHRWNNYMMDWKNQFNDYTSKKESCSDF
T1 sequence (O42275 whole entry): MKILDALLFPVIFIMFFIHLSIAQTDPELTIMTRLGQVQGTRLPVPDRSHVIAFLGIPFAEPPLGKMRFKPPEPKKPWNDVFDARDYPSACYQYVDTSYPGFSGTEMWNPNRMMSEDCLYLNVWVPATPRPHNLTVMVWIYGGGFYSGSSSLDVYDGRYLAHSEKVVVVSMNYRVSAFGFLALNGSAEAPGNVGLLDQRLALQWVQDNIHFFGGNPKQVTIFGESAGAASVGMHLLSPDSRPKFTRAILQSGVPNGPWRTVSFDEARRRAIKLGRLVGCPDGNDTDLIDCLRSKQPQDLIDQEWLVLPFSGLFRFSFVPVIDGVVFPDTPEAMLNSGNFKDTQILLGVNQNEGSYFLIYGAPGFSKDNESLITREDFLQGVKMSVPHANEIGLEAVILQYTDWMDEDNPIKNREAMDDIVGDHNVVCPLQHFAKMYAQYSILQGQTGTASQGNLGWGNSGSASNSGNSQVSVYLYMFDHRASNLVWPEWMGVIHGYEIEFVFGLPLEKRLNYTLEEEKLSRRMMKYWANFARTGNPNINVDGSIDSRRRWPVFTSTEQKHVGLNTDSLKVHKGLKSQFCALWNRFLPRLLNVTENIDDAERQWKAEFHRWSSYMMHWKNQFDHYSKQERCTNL
Chain of Amyloid-beta precursor protein (Homo sapiens) (P05067 whole entry): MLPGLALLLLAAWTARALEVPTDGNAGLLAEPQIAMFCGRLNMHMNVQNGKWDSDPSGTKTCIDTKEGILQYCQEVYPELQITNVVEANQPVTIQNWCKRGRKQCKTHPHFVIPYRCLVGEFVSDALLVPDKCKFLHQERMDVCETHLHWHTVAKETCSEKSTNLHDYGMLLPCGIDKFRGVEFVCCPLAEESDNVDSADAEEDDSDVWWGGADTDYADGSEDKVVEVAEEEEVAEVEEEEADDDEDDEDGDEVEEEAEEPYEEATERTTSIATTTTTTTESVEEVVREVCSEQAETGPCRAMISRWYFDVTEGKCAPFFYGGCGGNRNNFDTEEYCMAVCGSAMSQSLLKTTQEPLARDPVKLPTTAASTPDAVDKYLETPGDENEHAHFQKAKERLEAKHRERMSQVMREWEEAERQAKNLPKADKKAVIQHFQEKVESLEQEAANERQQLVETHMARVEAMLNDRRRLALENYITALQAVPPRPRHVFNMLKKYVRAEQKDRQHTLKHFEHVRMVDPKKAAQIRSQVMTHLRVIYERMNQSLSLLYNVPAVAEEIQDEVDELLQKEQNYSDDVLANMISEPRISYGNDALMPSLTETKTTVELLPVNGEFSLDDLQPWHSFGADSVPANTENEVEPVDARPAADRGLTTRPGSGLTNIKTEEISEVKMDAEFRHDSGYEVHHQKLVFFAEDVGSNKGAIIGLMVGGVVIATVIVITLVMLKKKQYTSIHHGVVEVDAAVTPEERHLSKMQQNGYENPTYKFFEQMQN

Question: What does the source list for COc1cc(/C=C/C(=O)N2CCC(Cc3ccccc3)CC2)ccc1OCCCN1CCN(Cc2ccccc2)CC1?
Answer: IC50 (Cholinesterase): 1.22 µM; IC50 (Acetylcholinesterase [1]): 8.4 µM; IC50 (Acetylcholinesterase [2]): 65 µM; inhibition [3]: 50.3%; Activity [4]: 0.7 equiv; IC50 [5]: 41.2 µM; Ratio IC50 [6]: 6.9

Question: Which Activity [4] does the source give for COc1cc(/C=C/C(=O)O)ccc1O [FERULATE] here?
Answer: 1.1 equiv

Question: And the inhibition at 25 µM (Acetylcholinesterase [7])?
Answer: < 5%

Question: Which IC50 (Cholinesterase) does the source give for COc1cc(/C=C/C(=O)N2CCC(Cc3ccccc3)CC2)ccc1OCCCCCCN1CCN(Cc2ccccc2)CC1 here?
Answer: 2.2 µM

Question: What about the IC50 (Acetylcholinesterase [1]) of the same molecule?
Answer: 4.83 µM

Question: And the IC50 (Acetylcholinesterase [2])?
Answer: 73.2 µM

Question: What about the inhibition [3] of the same molecule?
Answer: 51.1%

Question: What about the Activity [4] of the same molecule?
Answer: 0.73 equiv

Question: And the IC50 [5]?
Answer: 50.6 µM

Question: What about the Ratio IC50 [6] of the same molecule?
Answer: 2.2

Question: Which results are given for COc1cc(/C=C/C(=O)N2CCC(Cc3ccccc3)CC2)ccc1OCCCCCN1CCN(Cc2ccccc2)CC1?
Answer: IC50 (Cholinesterase): 2.23 µM; IC50 (Acetylcholinesterase [1]): 2.62 µM; IC50 (Acetylcholinesterase [2]): 79.8 µM; inhibition [3]: 55.9%; Activity [4]: 0.66 equiv; IC50 [5]: 61.5 µM; Ratio IC50 [6]: 1.2

Question: Which IC50 (Cholinesterase) does the source give for COc1cc(/C=C/C(=O)N2CCC(Cc3ccccc3)CC2)ccc1OCCCCCCN1CCc2ccccc2C1 here?
Answer: 0.88 µM

Question: What about the IC50 (Acetylcholinesterase [1]) of the same molecule?
Answer: 9.32 µM

Question: And the IC50 (Acetylcholinesterase [2])?
Answer: 21.5 µM

Question: And the inhibition [3]?
Answer: 54.7%

Question: And the Activity [4]?
Answer: 0.49 equiv

Question: What about the IC50 [5] of the same molecule?
Answer: 3.47 µM

Question: And the Ratio IC50 [6]?
Answer: 10.6

Question: With COc1cc(/C=C/C(=O)N2CCC(Cc3ccccc3)CC2)ccc1O as the molecule, how does the IC50 (Cholinesterase) read?
Answer: 5.7 µM

Question: And the inhibition [3]?
Answer: 65.9%

Question: And the Activity [4]?
Answer: 1.2 equiv

Question: What about the inhibition at 25 µM (Acetylcholinesterase [7]) of the same molecule?
Answer: < 5%

Question: Which IC50 [5] does the source give for COc1cc2c(cc1OC)C(=O)C(CC1CCN(Cc3ccccc3)CC1)C2 (stereo unspecified) [DONEPEZIL] here?
Answer: 4.42 µM

Question: Which IC50 (Cholinesterase) does the source give for COc1cc(/C=C/C(=O)N2CCC(Cc3ccccc3)CC2)ccc1OCCCCCN1CCc2ccccc2C1 here?
Answer: 0.31 µM

Question: And the IC50 (Acetylcholinesterase [1])?
Answer: 4.33 µM

Question: What about the IC50 (Acetylcholinesterase [2]) of the same molecule?
Answer: 3.21 µM

Question: And the inhibition [3]?
Answer: 50.7%

Question: And the Activity [4]?
Answer: 0.47 equiv

Question: What about the IC50 [5] of the same molecule?
Answer: 11.4 µM

Question: What about the Ratio IC50 [6] of the same molecule?
Answer: 14

Question: With COc1cc(/C=C/C(=O)N2CCC(Cc3ccccc3)CC2)ccc1OCCCCN1CCN(c2ccccn2)CC1 as the molecule, how does the IC50 (Cholinesterase) read?
Answer: 1.62 µM

Question: And the IC50 (Acetylcholinesterase [1])?
Answer: 11.2 µM

Question: What about the IC50 (Acetylcholinesterase [2]) of the same molecule?
Answer: 67.2 µM

Question: And the inhibition [3]?
Answer: 49.8%

Question: And the Activity [4]?
Answer: 0.4 equiv

Question: And the IC50 [5]?
Answer: 48.6 µM

Question: And the Ratio IC50 [6]?
Answer: 6.9

Question: For COc1cc(/C=C/C(=O)N2CCC(Cc3ccccc3)CC2)ccc1OCCCN1CCc2ccccc2C1, which IC50 (Cholinesterase) is on record?
Answer: 0.12 µM

Question: What about the IC50 (Acetylcholinesterase [1]) of the same molecule?
Answer: 2.21 µM

Question: And the IC50 (Acetylcholinesterase [2])?
Answer: 1.89 µM

Question: And the inhibition [3]?
Answer: 55.6%

Question: What about the Activity [4] of the same molecule?
Answer: 0.51 equiv

Question: And the IC50 [5]?
Answer: 2.28 µM

Question: What about the Ratio IC50 [6] of the same molecule?
Answer: 18.4
